For data set [1], the target named is Serine/threonine-protein kinase pim-2 (Homo sapiens, UniProt Q9P1W9). Kind of data set: Inhibition of PIM2 (unknown origin).
Data set [2] can be described thus: Inhibition of PIM in human KG-1 cells assessed as reduction in PS6 level. It counts as cell-based.
Data set [3] concerns KG-1. Kind of data set: Cytotoxicity against human KG-1 cells assessed as reduction in cell viability. The class given is functional, cell-based.
Data set [4] is described as follows: Permeability in human Caco2/TC7 cells at 5 uM. It counts as ADME, cell-based. Conditions: Caco-2, read-out: permeability.
Data set [5] deals with Voltage-gated inwardly rectifying potassium channel KCNH2 (Homo sapiens, UniProt Q12809). Kind of data set: Inhibition of human ERG by patch clamp assay. In general terms: The patch-clamp technique gives a direct electrical read-out from membranes.
Voltage-gated inwardly rectifying potassium channel KCNH2, sequence (Q12809 whole entry): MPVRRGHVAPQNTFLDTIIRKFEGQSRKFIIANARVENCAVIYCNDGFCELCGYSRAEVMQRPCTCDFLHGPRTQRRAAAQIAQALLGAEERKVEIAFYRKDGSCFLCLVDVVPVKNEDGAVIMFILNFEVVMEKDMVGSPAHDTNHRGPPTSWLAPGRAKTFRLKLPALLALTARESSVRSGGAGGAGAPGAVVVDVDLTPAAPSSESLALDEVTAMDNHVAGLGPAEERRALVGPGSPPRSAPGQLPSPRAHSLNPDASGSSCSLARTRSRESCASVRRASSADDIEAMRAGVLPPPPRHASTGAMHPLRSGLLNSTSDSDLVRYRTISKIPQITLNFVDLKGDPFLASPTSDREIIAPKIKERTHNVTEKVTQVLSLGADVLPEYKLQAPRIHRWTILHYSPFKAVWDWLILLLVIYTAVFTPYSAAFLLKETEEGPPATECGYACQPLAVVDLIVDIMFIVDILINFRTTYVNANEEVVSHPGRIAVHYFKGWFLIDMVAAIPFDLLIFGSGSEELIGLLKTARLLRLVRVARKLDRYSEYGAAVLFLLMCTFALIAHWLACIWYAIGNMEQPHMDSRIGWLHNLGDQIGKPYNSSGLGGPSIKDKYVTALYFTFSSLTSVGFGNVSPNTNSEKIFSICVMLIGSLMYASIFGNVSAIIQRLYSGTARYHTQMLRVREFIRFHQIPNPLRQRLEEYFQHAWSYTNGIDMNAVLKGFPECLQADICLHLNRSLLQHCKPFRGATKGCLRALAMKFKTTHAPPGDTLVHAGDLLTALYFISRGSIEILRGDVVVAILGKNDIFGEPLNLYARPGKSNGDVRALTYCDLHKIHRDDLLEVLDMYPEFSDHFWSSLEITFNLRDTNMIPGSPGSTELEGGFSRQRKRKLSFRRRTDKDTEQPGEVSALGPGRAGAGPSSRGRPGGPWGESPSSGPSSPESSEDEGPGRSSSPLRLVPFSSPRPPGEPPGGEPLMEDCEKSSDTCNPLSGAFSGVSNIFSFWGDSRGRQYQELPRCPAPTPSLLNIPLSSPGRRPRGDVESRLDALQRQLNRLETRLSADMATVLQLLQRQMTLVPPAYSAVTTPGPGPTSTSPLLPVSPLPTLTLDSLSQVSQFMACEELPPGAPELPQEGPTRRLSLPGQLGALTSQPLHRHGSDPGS
Data set [6] in a line: Oral bioavailability in rat at 10 mg/kg. It counts as ADME, organism-based. To be noted: in vivo.
A short description of data set [7]: Free plasma concentration in human KG-1 tumor bearing mouse at 25 mg/kg, po measured after 8 hrs. It counts as ADME, organism-based. Conditions: in vivo.
Data set [8] is described as follows: Free plasma concentration in human KG-1 tumor bearing mouse at 25 mg/kg, po measured after 24 hrs. The class given is ADME, organism-based. Conditions: in vivo.
A short description of data set [9]: Thermodynamic solubility in pH 7.4 buffer. The class given is physicochemical. Conditions: read-out: Therm_solubility.
The nature of data set [10]: Cmax in rat at 3 mg/kg, iv. The class given is ADME, organism-based. More on the design: route intravenous, dose 3 mg/kg. Conditions: in vivo.
Data set [11] is described as follows: Half life in rat at 3 mg/kg, iv. It counts as ADME, organism-based. Conditions: in vivo.
The nature of data set [12]: Clearance in rat at 3 mg/kg, iv. To be noted: in vivo. It counts as ADME, organism-based.
The nature of data set [13]: Volume of distribution at steady state in rat at 3 mg/kg, iv. It counts as ADME, organism-based. Conditions: in vivo, read-out: Vdss.
The test system of data set [14] is KG-1. Kind of data set: Antitumor activity against human KG-1 tumor bearing mouse assessed as reduction BAD phosphorylation at 25 mg/kg, po measured after 8 hrs. It counts as functional. Conditions: KG-1, po.
For data set [15], the system named is KG-1. Kind of data set: Antitumor activity against human KG-1 tumor bearing mouse assessed as reduction BAD phosphorylation at 25 mg/kg, po measured after 24 hrs. It counts as functional. To be noted: KG-1, po.
Data set [16] concerns KG-1. The data set can be described thus: Antitumor against human KG-1 cells xenografted in mouse assessed as tumor volume at 150 mg/kg, po administered BID for 3 weeks relative to control. It counts as functional.
Data set [17] concerns KG-1. The data set can be described thus: Antitumor against human KG-1 cells xenografted in mouse assessed as tumor growth inhibition at 150 mg/kg, po administered BID for 3 weeks. It counts as functional. Conditions: KG-1, po, 504 h, read-out: TGI.
Data set [18] in a line: Toxicity in mouse xenografted with human KG-1 cells assessed as reduction in body weight at 50 to 150 mg/kg, po administered bid for 3 weeks. More on the design: scale not given: the % may be the effect or the level left. Conditions: in vivo, 504 h, dose 50-150 mg/kg. The class given is organism-based. (In general: In xenograft studies the graft and the host belong to different species.)

Data set [19] deals with KG-1. The data set can be described thus: Antitumor against human KG-1 cells xenografted in mouse assessed as tumor volume at 100 mg/kg, po administered BID for 3 weeks relative to control. The class given is functional.
For data set [20], the system named is KG-1. The data set can be described thus: Antitumor against human KG-1 cells xenografted in mouse assessed as tumor volume at 50 mg/kg, po administered BID for 3 weeks relative to control. The class given is functional.
Data set [21] is described as follows: Unbound fraction in human KG-1 tumor bearing mouse plasma at 25 mg/kg, po. The class given is ADME, organism-based.
A short description of data set [22]: Free tumor concentration in human KG-1 tumor bearing mouse at 25 mg/kg, po measured after 8 hrs. The class given is ADME, organism-based, Neoplasm. To be noted: in vivo.
Data set [23] in a line: Free tumor concentration in human KG-1 tumor bearing mouse at 25 mg/kg, po measured after 24 hrs. It counts as ADME, organism-based, Neoplasm. Conditions: in vivo.

A word on the IC50: it is the concentration that inhibits the measured activity by half. In general, EC50 refers to the midpoint of the concentration-response curve. As a reminder, the bioavailability is the share of a dose that reaches the circulation, judged against a reference dose that is usually intravenous. One may read the Cmax as the maximum level reached in the sampled fluid or tissue. The term half-life denotes the time needed for the level to fall by half in the phase considered. Usually clearance stands for the rate of elimination divided by the concentration. Broadly, the T/C is the result in the treated group divided by that in the control group, in per cent. For orientation: fraction unbound means the share of the substance not bound to proteins or other matrix.

≈ marks a conversion by molar mass, not a printed value.

Serine/threonine-protein kinase pim-2, sequence (Q9P1W9 whole entry): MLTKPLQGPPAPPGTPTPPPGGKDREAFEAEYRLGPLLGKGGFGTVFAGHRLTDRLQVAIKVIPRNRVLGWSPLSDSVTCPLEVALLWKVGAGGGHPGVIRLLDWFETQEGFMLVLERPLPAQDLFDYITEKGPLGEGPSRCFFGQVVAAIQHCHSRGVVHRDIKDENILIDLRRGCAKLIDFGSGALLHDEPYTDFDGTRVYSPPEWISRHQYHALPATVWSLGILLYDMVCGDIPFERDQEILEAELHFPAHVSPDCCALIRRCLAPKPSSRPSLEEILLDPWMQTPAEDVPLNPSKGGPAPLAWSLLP

For `Cc1cn([C@@H](C)[C@@]2(F)CCNC2)c2nc(C(N)=O)cc(Cl)c12` (stereo in doubt), the IC50 in data set [1] was found to be 0.16 µM. In addition, the EC50 in data set [2] was 0.876 µM; in the data set with KG-1 [3], 0.808 µM.

Regarding `Cc1cn([C@H](C)[C@]2(F)CCNC2)c2nc(C(N)=O)cc(Cl)c12` (stereo in doubt), the IC50 was 0.515 µM in data set [1] and 30 µM in [5]. In addition, the figures for the EC50 (in data set [2]; with KG-1 [3]) were 2.03 µM and 9.07 µM, respectively. For the same compound, the Papp at 5 µM in data set [4] stood at 1.8 ×10⁻⁶ cm/s.

Take `Cc1cn([C@@H](C)[C@@H]2CCNC[C@@H]2F)c2nc(C(N)=O)cc(Cl)c12` (racemic): the EC50 in [2] was determined as 0.115 µM; with KG-1 [3], 0.195 µM. For the same compound, in data set [4], the Papp at 5 µM was determined as 1.7 ×10⁻⁶ cm/s.

Turning to `Cc1cn([C@H](C)[C@@]2(F)CCNC2)c2nc(C(N)=O)cc(Cl)c12` (stereo in doubt), the IC50 in data set [1] was 1.78 µM. Besides, the EC50 in the data set with KG-1 [3] was 7.23 µM.

As for `Cc1cn([C@@H](C)[C@]2(F)CCNC2)c2nc(C(N)=O)cc(Cl)c12` (stereo in doubt), in data set [6], the bioavailability was found to be 59%. For the same compound, the “Cp(f)” value in data set [7] was found to be 240 nM; in [8] it was 54 nM. Moreover, the IC50 in data set [1] is 0.006 µM; in data set [5], 22 µM. Also, the EC50 turned out to be 0.071 µM in [2] and 0.061 µM with KG-1 [3]. Further, the Papp at 5 µM in [4] worked out at 2.3 ×10⁻⁶ cm/s. In addition, the solubility thermodynamic in data set [9] was 6.8 mM (≈ 2210 µg/mL). Also, the concentration in data set [10] peaked (Cmax) at 174 ng/mL. This compound showed a half-life in data set [11] of 2.7 h. This compound showed a clearance in data set [12] of 75 mL/min/kg. Moreover, the Vd in [13] was 9.9 L/kg. Also, the inhibition in vivo at 25 mg/kg with KG-1 [14] stood at 65%; in the data set with KG-1 [15], 55%. The figures for the T/C in the data set with KG-1 [16], with KG-1 [19] and with KG-1 [20] were 13.1%, 50.7% and 56.1%, respectively. Moreover, the inhibition in vivo at 150 mg/kg in the data set on KG-1 [17] is 87%. Also, the Activity in [18] was > 15%. Besides, the fraction unbound in [21] came to 0.055. Besides, the figures for the “Drug uptake(free)” value in data set [22] and in [23] were 720 nM and 120 nM, respectively.

Turning to `Cc1cn([C@@H](C)[C@H]2CCNC[C@H]2F)c2nc(C(N)=O)cc(Cl)c12` (racemic), the EC50 was 0.006 µM in [2] and 0.017 µM in the data set with KG-1 [3]. Also, in data set [4], the Papp at 5 µM was 1.5 ×10⁻⁶ cm/s.

As to `Cc1cn([C@H](C)[C@@H]2CCNC[C@H]2F)c2nc(C(N)=O)cc(Cl)c12` (racemic), the EC50 in data set [2] came to 0.024 µM; in the data set on KG-1 [3], 0.02 µM. In addition, the Papp at 5 µM in data set [4] turned out to be 12 ×10⁻⁶ cm/s.

Turning to `Cc1cn([C@H](C)[C@H]2CCNC[C@@H]2F)c2nc(C(N)=O)cc(Cl)c12` (racemic), the EC50 in data set [2] worked out at 0.052 µM; with KG-1 [3], 0.051 µM. The Papp at 5 µM in data set [4] is 7.1 ×10⁻⁶ cm/s.
